Assays:
[1] = Inclusion efficiency for bendamustine in VPG (ion exchanger separation of free drug); assay type: physicochemical; conditions: direct inclusion in VPG by speed mixing, 3540 rpm 30 min; ± SD
Method: (§1) Within the context of the present invention, the “enclosure efficiency” is the ratio (percentage) of the amount of the measured substance (e.g., of an active substance) which is included in the lipid-based nanoparticles, associated to the nanoparticles or incorporated into the nanoparticles, to the total amount of the respective substance used for the formulation.
Into a 25 ml injection bottle (outer diameter: 36 mm), 1.0 g of the mixture of hydrogenated egg phosphatidylcholine and cholesterol (55/45 mole %) existing as a solid solution as well as 1.0 g of glass beads (diameter 1 mm) was weighed under sterile conditions. The bottle was flange-sealed. Through the septum, 1.5 ml of a Bendamustin® hydrochloride solution (containing 9.09 mg of bendamustine/ml; the solution was prepared by reconstitution from Bendamustin of Ribosepharm; thus, 0.9% NaCl solution was injected into the medicine bottle with the lyophilized medicament) was added. […] Samples of the VPGs containing bendamustine were taken, and the inclusion efficiency for bendamustine was determined to be 40.6±3.08% (SD) (separation of the free bendamustine: by ion exchanger, Moog et al., Cancer Chem Pharmacol 49: 356 (2002), bendamustine analytics: Maas, B. et al., Pharmazie 49: 775-777 (1994)). The mean size of the vesicles was determined by PCS to be 62.5±3.5 nm (SD) (n: 8).

[2] = Inclusion efficiency for gemcitabine in VPG; assay type: physicochemical; conditions: for Inclusion efficiency: then passive loading 60° C. 2 hours
Method: as §1
Into a 25 ml injection bottle (outer diameter: 36 mm), 1.48 g of the mixture of hydrogenated egg phosphatidylcholine and cholesterol (55/45 mole %) existing as a solid solution as well as 3 g of glass beads (diameter 1 mm) was weighed under sterile conditions. The bottle was flange-sealed. Through the septum, 500 μl of a Gemzar® solution (containing 38.02 mg of gemcitabine/ml; Gemzar® is the name of the gemcitabine-containing medicament of the company Lilly, one injection bottle contains 200 mg of gemcitabine (lyophilized) and is reconstituted with 5 ml of 0.9% NaCl) as well as 2.22 g of 5% mannitol solution was added. The mixture was subjected to speed mixing at 3540 rpm for 20 minutes to form gemcitabine-containing VPG.
Into a 25 ml injection bottle, 3.7 g of VPG (660 mM lipid, mixture of hydrogenated egg phosphatidylcholine and cholesterol (55/45 mole %), existing as a solid solution) was charged, and the bottle was centrifuged briefly, so that a uniformly thick layer of VPG formed at the bottom of the vessel. To this layer, 500 μl of a Gemzar® solution was added (contains 38.02 mg of gemcitabine/ml; Gemzar® is the name of the gemcitabine-containing medicament of the company Lilly, one injection bottle contains 200 mg of gemcitabine (lyophilized) and is reconstituted with 5.0 ml of 0.9% NaCl). […]
Subsequently, the VPG-gemcitabine mixture as well as a comparative sample in which gemcitabine was incorporated into the VPG by two shaking steps for 10 and 5 minutes, respectively, with an incubation break for 1 hour between, incubated at 60° C. for 2 hours for passive loading, the VPG was subsequently redispersed, and the inclusion efficiency for gemcitabine was determined.

[3] = empty VPG by high-pressure homogenization, gemcitabine incorporated by passive loading (EP 1 087 752); cited from earlier work
[4] = Mean size of liposomes / lipid-based nanoparticles by photon correlation spectroscopy (PCS); assay type: physicochemical
[5] = Inclusion efficiency for RNA-Cy3 in liposomes (fluorescence spectroscopy of supernatant); assay type: physicochemical; conditions: 1 μM RNA-Cy3, 3540 rpm 10 min
Method: as §1
Into two glass vials (diameter 10 mm), 100 mg each of glass beads (diameter 1 mm) and 50 mg each of the mixture of hydrogenated egg phosphatidylcholine and cholesterol (55/45 mole %) existing as a solid solution was weighed. Into one vial, 75 μl of a 1 μM RNA-Cy3 solution (RNA: 27mer; 5′-GGA GCU CGC U T**C GGC GAG GUC GUG CCA-3′; T**=thymidine-C6-amino-NHS-Cy3; Cy3: fluorescence dye; Qiagen) was pipetted. Into the second vial, 75 μl of NaCl solution was added. The closed vials were subjected to speed mixing at 3540 rpm for 10 minutes each. The liposome gel loaded with RNA-Cy3 solution was redispersed with 250 μl of NaCl solution. […] In the supernatant, the relative concentrations of fluorescence-labeled RNA were subsequently determined by fluorescence spectroscopy (em: 565, ex; 515 nm), and the inclusion efficiency for RNA-Cy3 was calculated by dividing the values by one another (60.1%). The mean size of the redispersed vesicles was determined by means of PCS to be 127.8 nm. […]

[6] = Inclusion efficiency for trypan blue in liposomes (absorption spectroscopy of supernatant); assay type: physicochemical; conditions: EPC3/cholesterol 55/45; 3540 rpm 10 min
Method: Within the context of the present invention, the “enclosure efficiency” is the ratio (percentage) of the amount of the measured substance (e.g., of an active substance) which is included in the lipid-based nanoparticles, associated to the nanoparticles or incorporated into the nanoparticles, to the total amount of the respective substance used for the formulation. Into two glass vials (diameter 10 mm), 100 mg each of glass beads (diameter 1 mm) and 50 mg each of the mixture of hydrogenated egg phosphatidylcholine and cholesterol (55/45 mole %) existing as a solid solution was weighed. Into one vial, 75 μl of a trypan blue solution (1000 μl of commercially available trypan blue solution (0.4%) plus 30 ml of 25% ammonia solution) was pipetted. Into the second vial, 75 μl of 0.9% NaCl solution was added. The closed vials were subjected to speed mixing at 3540 rpm for 10 minutes each. The liposome gel loaded with trypan blue solution was redispersed with 250 μl of NaCl solution. The liposome gel prepared with saline only was redispersed with 175 μl of NaCl solution plus 75 μl of trypan blue solution. […] In the supernatant, the trypan blue concentration was subsequently determined by absorption spectroscopy, and the inclusion efficiency was calculated. […]

With Cn1c(CCCC(=O)O)nc2cc(N(CCCl)CCCl)ccc21 [bendamustine] the “inclusion efficiency for bendamustine” value [1] was 40.6±3.08%.

In the case of Nc1ccn([C@@H]2O[C@H](CO)[C@@H](O)C2(F)F)c(=O)n1 [gemcitabine], the “inclusion efficiency for gemcitabine” value ([2]; direct inclusion in VPG by speed mixing, 3540 rpm 20 min) is reported as 80.7%, the Inclusion efficiency ([2]; gemcitabine incorporated into prefabricated VPG by shaking (10 and 5 min)) is reported as 47% and the Inclusion efficiency ([2]; gemcitabine incorporated into prefabricated VPG by speed mixing (0.5 min)) is reported as 44%. The “inclusion efficiency for passive loading” value [3] was 43-47%.

In the case of “RNA-Cy3: fluorescence-labeled RNA 27mer 5′-GGA GCU CGC U T**C GGC GAG GUC GUG CCA-3′, T**=thymidine-C6-amino-NHS-Cy3 (Qiagen) (chain 1 GGAGCUCGCUT; chain 2 CGGCGAGGUCGUGCCA; Cy3 label on thymidine-C6-amino, chemistry not fully specified)”, the “mean size of the redispersed vesicles” value ([4]; RNA-Cy3-loaded negatively charged liposomes (hydrogenated egg PC/cholesterol/DPPG 46/33/20)) is reported as 238.1 nm, the “mean size of the redispersed vesicles” value ([4]; RNA-Cy3-loaded neutral liposomes (hydrogenated egg PC/cholesterol 55/45)) is reported as 127.8 nm and the “inclusion efficiency for RNA-Cy3” value ([5]; negatively charged liposomes (hydrogenated egg PC/cholesterol/DPPG 46/33/20)) is reported as 82.9%. For the same compound, the “inclusion efficiency for RNA-Cy3” value ([5]; neutral liposomes (hydrogenated egg PC/cholesterol 55/45)) was 60.1%.

For Cc1cc(-c2ccc(/N=N/c3c(S(=O)(=O)O)cc4cc(S(=O)(=O)O)cc(N)c4c3O)c(C)c2)ccc1/N=N/c1c(S(=O)(=O)O)cc2cc(S(=O)(=O)O)cc(N)c2c1O [trypan blue], the “inclusion efficiency for trypan blue in liposomes by speed mixing” value [6] was 51%.

Reference: patent publication US10662060B2, “Manufacture of lipid-based nanoparticles using a dual asymmetric centrifuge” (priority 2004, dated 2020)
